Series [1] concerns HepG2. The series can be described thus: Induction of intracellular ROS production in human HepG2 cells at 30 uM incubated for 10 hrs followed by DCF-DA addition for 20 mins in dark and irradiated with LED light at 1.7 J/cm'2 by fluorescence assay. The format is functional, cell-based.
The nature of series [2]: Drug uptake in human HepG2 cells at 30 uM measured up to 10 hrs by fluorescence assay. It is filed as ADME, cell-based. The following applies: hepg2, 10 h.
Series [3] in a line: Induction of singlet oxygen production in Tris-Hcl buffer after irradiation with LED light at 1.7 J/cm'2 at 100 uM at pH 7.4 by ATTA-Eu3+ probe based fluorescence microscopy.
Series [4] relates to HepG2. The series can be described thus: Phototoxicity against human HepG2 cells assessed as reduction in cell viability preincubated overnight followed by irradiation with LED light at 1.7 J/cm'2 for 10 mins measured post overnight incubation by MTT assay. The format is functional, cell-based. Conditions: HepG2, light or radiation study.
The subject of series [5] is HepG2. The series can be described thus: Phototoxicity against human HepG2 cells assessed as reduction in cell viability up to 100 uM irradiated with LED light at 1.7 J/cm'2 measured after 12 hrs by MTT assay. The format is functional, cell-based.
Series [6] in a line: Dark toxicity against human HepG2 cells assessed as reduction in cell viability incubated overnight by MTT assay. The format is cell-based.

Usually IC50 stands for the concentration needed to halve the response being measured.

Activity calls are given as the source filed them. No cut-off for these calls is given here.

With `C=CC1=C(C)/C2=C/C3=NC(=C(/CC(=O)NCCNC(=O)OC(C)(C)C)c4[nH]c(c(C)c4C(=O)O)/C=C4\N=C(CC1N2)C(C)=C4CC)/[C@@H](CCC(=O)O)[C@@H]3C` (stereo not given in full), the result in the series on HepG2 [1] was Active. Also, in series [2], the Drug uptake entry was “Active”.
As for `C=Cc1c(C)c2cc3nc(c(CC(=O)O)c4[nH]c(cc5nc(cc1[nH]2)C(C)=C5CC)c(C)c4C(=O)O)[C@@H](CCC(=O)NCCNC(=O)CCC(=O)O[C@@H]1O[C@@H]2O[C@@]4(C)CC[C@H]5[C@H](C)CC[C@@H]([C@H]1C)[C@@]25OO4)[C@@H]3C`, the result (in series [3]; in the series on HepG2 [5]; in the series on HepG2 [1]) was Active. The IC50 with HepG2 [4] is 1.5 µM; in series [6] it was 29.1 µM. Moreover, the Drug uptake entry in series [2] is reported as “Active”.
For the molecule `C=Cc1c(C)c2cc3nc(c(CC(=O)NCCNC(=O)CCC(=O)O[C@@H]4O[C@@H]5O[C@@]6(C)CC[C@H]7[C@H](C)CC[C@@H]([C@H]4C)[C@@]57OO6)c4[nH]c(cc5nc(cc1[nH]2)C(C)=C5CC)c(C)c4C(=O)NCCNC(=O)CCC(=O)O[C@@H]1O[C@@H]2O[C@@]4(C)CC[C@H]5[C@H](C)CC[C@@H]([C@H]1C)[C@@]25OO4)[C@@H](CCC(=O)NCCNC(=O)CCC(=O)O[C@@H]1O[C@@H]2O[C@@]4(C)CC[C@H]5[C@H](C)CC[C@@H]([C@H]1C)[C@@]25OO4)[C@@H]3C`, in series [3], the result was inactive. The IC50 in the series with HepG2 [4] is 0.8 µM; in series [6], 12.9 µM. Further, the result in the series with HepG2 [5] and with HepG2 [1] was Active. Further, the Drug uptake result in series [2] is recorded as “Active”.
Consider `C=Cc1c(C)c2cc3nc(c(CC(=O)O)c4[nH]c(cc5nc(cc1[nH]2)C(C)=C5CC)c(C)c4C(=O)NCCNC(=O)CCC(=O)O[C@@H]1O[C@@H]2O[C@@]4(C)CC[C@H]5[C@H](C)CC[C@@H]([C@H]1C)[C@@]25OO4)[C@@H](CCC(=O)O)[C@@H]3C`, for which the outcome (in series [3]; in the series on HepG2 [5]; with HepG2 [1]) was Active. The results for the IC50 (in the series with HepG2 [4]; in series [6]) were 1.8 µM and 36.6 µM, respectively. Also, the Drug uptake entry in series [2] was “Active”.
Turning to `C[C@H]1[C@H](OC(=O)CCC(=O)O)O[C@@H]2O[C@@]3(C)CC[C@H]4[C@H](C)CC[C@@H]1[C@@]24OO3` [ARTESUNATE], the IC50 with HepG2 [4] came to 7.7 µM; in series [6], 6.5 µM. Besides, the result in the series with HepG2 [5] and in the series on HepG2 [1] was Active.
As to `C=Cc1c(C)c2cc3nc(c(CC(=O)NCCNC(=O)CCC(=O)O[C@@H]4O[C@@H]5O[C@@]6(C)CC[C@H]7[C@H](C)CC[C@@H]([C@H]4C)[C@@]57OO6)c4[nH]c(cc5nc(cc1[nH]2)C(C)=C5CC)c(C)c4C(=O)O)[C@@H](CCC(=O)O)[C@@H]3C`, the result (in series [3]; in the series on HepG2 [5]; in the series with HepG2 [1]) was Active. In addition, the IC50 was found to be 2.4 µM in the series with HepG2 [4] and 57 µM in series [6]. For the same molecule, the Drug uptake entry in series [2] is listed as “Active”.

The values are drawn from ChEMBL document CHEMBL4043215, “Synergistic antiproliferative effect of chemo-phototherapy: Synthesis and photodynamic activity evaluation of novel Chlorin e6-artesunate conjugates as antiproliferative agents” (Bioorg Med Chem Lett, 2017).
